In patent publication US3962445A, “Anti-allergenic carbostyril derivatives” (Beecham Group Limited, priority 1973, dated 1976):

Tested on: PCA response
Test: rat Passive Cutaneous Anaphylaxis Test (PCA test)
Type: in vivo, rat (male Wistar)
Settings: subcutaneous, as sodium salt
Protocol: Some of the 4-hydroxycarbostyrils prepared in the preceding examples were tested in the rat Passive Cutaneous Anaphylaxis Test (PCA test), described below. They were administered as their sodium salts either in pH 7.2 phosphate buffer (for soluble salts) or as a suspension in 1% methyl cellulose (for insoluble salts).
Male Wistar rats of 250-300g, were injected intraperitoneally with 0.5 ml. of Bordatella pertussis vaccine (containing 4 × 10^10 dead organism per ml) and subcutaneously with 0.5 ml. of an emulsion of 100 mg. of ovalbumin in 2 ml of saline and 3 ml. of incomplete Freunds' adjuvant. Rats were bled by cardiac puncture on day 18, the blood was pooled and separated and serum stored at -20° and thawed only once before use.
0.1 ml of each of six twofold serial dilutions of the serum in 0.9% saline were injected intradermally into separate sites on the shaved dorsal surface of 250-350 g. Male Wistar rats. 72 hours later the animals were challenged by i v injection of 0.3 ml. of 1% ovalbumin mixed with 0.1 ml of a 5% solution of pontamine sky blue dye both in isotonic saline buffered with pH. 7.2 Sorenson buffer (P P S ) The rats were killed after 20 minutes and the diameter of the blue wheals at the antibody injection sites were measured. The starting dilution of the serum was adjusted so that there was no response after challenge, at the site of injection of the highest dilution and a maximum response at the two or three lowest dilutions. Typically, six twofold serial dilutions of the serum 1/4 to […] were used.
Amounts of the compounds were administered to rats by subcutaneous injection, into the nucal region, of a solution of the compound in P.B.S. or as a suspension in 1% methyl cellulose, each amount to a test group of six animals at a specified time prior to intravenous challenge with ovalbumin.
% Inhibition of P.C.A = 100 (1 - a/b)
For those compounds having insoluble sodium salts, the salts were isolated by reaction of the free nitro compound with 2.5N sodium hydroxide and the filtered sodium salt washed free of alkali with water. The dried salts were then administered as a suspension in 1% methyl cellulose.

[1] = 0 h, time 0 mins. prior to i.v. ovalbumin challenge
[2] = 0.5 h, time 30 mins. prior to i.v. ovalbumin challenge
[3] = 1 h, time 60 mins. prior to i.v. ovalbumin challenge

Row | SMILES | inhibition at 25 mg/kg [1] [%] | inhibition at 100 mg/kg [1] [%] | inhibition at 25 mg/kg [2] [%] | inhibition at 100 mg/kg [2] [%] | inhibition at 25 mg/kg [3] [%] | inhibition at 100 mg/kg [3] [%]
1 | O=c1[nH]c2ccccc2c(O)c1[N+](=O)[O-] [Example 1, 4-Hydroxy-3-nitrocarbostyril] | 9 | 33 | 19 | 40 | – | –
2 | O=c1[nH]c2ccc([N+](=O)[O-])cc2c(O)c1[N+](=O)[O-] [Example 2, 3,6-Dinitro-4-hydroxycarbostyril] | 4 | -14 | – | – | 31 | 23
3 | O=c1[nH]c2ccc(Cl)cc2c(O)c1[N+](=O)[O-] [Example 3, 6-Chloro-4-hydroxy-3-nitrocarbostyril] | -39 | -30 | – | – | 33 | 54
4 | Cc1ccc2[nH]c(=O)c([N+](=O)[O-])c(O)c2c1 [Example 4, 4-Hydroxy-6-methyl-3-nitrocarbostyril] | 14 | 30 | – | – | 15 | 23
5 | CCc1ccc2[nH]c(=O)c([N+](=O)[O-])c(O)c2c1 [Example 5, 6-Ethyl-4-hydroxy-3-nitro-carbostyril] | 19 | 26 | – | – | 13 | 33
6 | Cc1cccc2[nH]c(=O)c([N+](=O)[O-])c(O)c12 [Example 6 (a), 4-Hydroxy-5-methyl-3-nitrocarbostyril] | 5 | 7 | – | – | 1 | 51
7 | Cc1ccc2c(O)c([N+](=O)[O-])c(=O)[nH]c2c1 [Example 6 (b), 4-hydroxy-7-methyl-3-nitrocarbostyril] | 12 | 7 | – | – | 1 | 23
8 | Cc1cccc2c(O)c([N+](=O)[O-])c(=O)[nH]c12 [Example 7, 4-Hydroxy-8-methyl-3-nitrocarbostyril] | 23 | 71 | 18 | 36 | – | –
9 | O=c1[nH]c2ccc(Br)cc2c(O)c1[N+](=O)[O-] [Example 8, 6-Bromo-4-hydroxy-3-nitrocarbostyril] | 5 | -11 | – | – | 25 | 19
10 | Cc1ccc(C)c2c(O)c([N+](=O)[O-])c(=O)[nH]c12 [Example 9, 5,8-Dimethyl-4-hydroxy-3-nitrocarbostyril] | 7 | 22 | 9 | 27 | – | –
11 | Cc1cc(C)c2c(O)c([N+](=O)[O-])c(=O)[nH]c2c1 [Example 10, 5,7-Dimethyl-4-hydroxy-3-nitrocarbostyril] | 0 | 22 | – | – | 35 | 44
12 | Cc1cc(C)c2[nH]c(=O)c([N+](=O)[O-])c(O)c2c1 [Example 11, 6,8-Dimethyl-4-hydroxy-3-nitrocarbostyril] | 11 | 0 | – | – | 52 | 51
13 | Cc1ccc2c(O)c([N+](=O)[O-])c(=O)[nH]c2c1C [Example 12, 7,8-Dimethyl-4-hydroxy-3-nitrocarbostyril] | 9 | 50 | 36 | 47 | – | –
14 | O=c1[nH]c2c(Br)cccc2c(O)c1[N+](=O)[O-] [Example 13, 8-Bromo-4-hydroxy-3-nitrocarbostyril] | 36 | 49 | – | – | 32 | 32
15 | O=c1[nH]c2c(Cl)cccc2c(O)c1[N+](=O)[O-] [Example 14, 8-Chloro-4-hydroxy-3-nitrocarbostyril] | 18 | 26 | – | – | 42 | 43
16 | Cc1cc2[nH]c(=O)c([N+](=O)[O-])c(O)c2cc1C [Example 15, 6,7-Dimethyl-4-hydroxy-3-nitrocarbostyril] | 62 | 88 | – | – | 27 | 54
17 | O=c1[nH]c2cc(Cl)ccc2c(O)c1[N+](=O)[O-] [Example 16, 7-Chloro-4-hydroxy-3-nitrocarbostyril] | -3 | 13 | 9 | 63 | – | –
18 | CCc1cc2[nH]c(=O)c([N+](=O)[O-])c(O)c2cc1CC [Example 17, 6,7-Diethyl-4-hydroxy-3-nitrocarbostyril] | 25 | 32 | – | – | 34 | 42
19 | CCn1c(=O)c([N+](=O)[O-])c(O)c2ccccc21 [Example 30, 1-Ethyl-4-hydroxy-3-nitro carbostyril] | 9 | 20 | 34 | 41 | – | –
20 | Cn1c(=O)c([N+](=O)[O-])c(O)c2ccccc21 [Example 31, 4-Hydroxy-1-methyl-3-nitro carbostyril] | 21 | 35 | 26 | 36 | – | –
21 | Cc1ccc2c(c1)c(O)c([N+](=O)[O-])c(=O)n2C [Example 32, 1,6-Dimethyl-4-hydroxy-3-nitro carbostyril] | -12 | 16 | 55 | 26 | – | –
22 | CCn1c(=O)c([N+](=O)[O-])c(O)c2cc(C)ccc21 [Example 33, 1-Ethyl-4-hydroxy-6-methyl-3-nitro carbostyril] | -12 | -1 | – | – | -5 | 16
23 | Cn1c(=O)c([N+](=O)[O-])c(O)c2cc(Cl)ccc21 [Example 34, 6-Chloro-4-hydroxy-1-methyl-3-nitro carbostyril] | -5 | 43 | – | – | 8 | 61
24 | CCn1c(=O)c([N+](=O)[O-])c(O)c2cc(Cl)ccc21 [Example 35, 6-Chloro-1-ethyl-4-hydroxy-3-nitro carbostyril] | -8 | 5 | – | – | 11 | 88
25 | Cn1c(=O)c([N+](=O)[O-])c(O)c2ccc(Cl)cc21 [Example 36, 7-Chloro-4-hydroxy-1-methyl-3-nitro carbostyril] | -4 | 34 | – | – | -2 | 50
26 | O=c1c([N+](=O)[O-])c(O)c2ccccc2n1-c1ccccc1 [Example 37, 4-Hydroxy-3-nitro-1-phenylcarbostyril] | -2 | 13 | 1 | 42 | – | –
27 | Cc1cc2c(O)c([N+](=O)[O-])c(=O)n(C)c2cc1C [Example 38, 4-Hydroxy-3-nitro-1,6,7-trimethylcarbostyril] | 13 | 53 | 14 | 47 | – | –
